Laboratory results as given in patent publication US20080267948A1, “Croos-B Structure Binding Compounds” (priority 2005, published 2008).
“Also recorded” adds a separate entry of the source.

Columns and labels:
[1] = molecular target: T1, Aβ (Homo sapiens, UniProt P05067, E693Q); assay: Binding of Aβ from solution to immobilized small compounds; conditions: Greiner Microlon, coat 100 μg/ml, Aβ 100 μg/ml
T1 construct: Lyophilized human amyloid-β(1-40) with E22Q mutation ‘Dutch type’; purchased Peptide facility, Dutch Cancer Institute, Amsterdam; host or cells: synthetic peptide
Protocol: To test the ability of the twelve selected compounds (see Table 7) to bind to misfolded proteins, […] Greiner Microlon high binding plates, Nunc amino Immobilizer plates and Nunc Maxisorp plates. Compounds were coated in 100 mM NaHCO3 pH 9.6, 50 μl/well, 1 h at room temperature with agitation. As a control, wells were coated with buffer only. After blocking of the plates, wells were overlayed with solutions of 0.1/1/10 μg/ml Hb-AGE or 10/100 μg/ml Aβ, in binding buffer (PBS/0.1% Tween20). After washing, binding of Hb-AGE was assessed by overlaying wells with 1 μg/ml hybridoma antibody 4B5, which binds to glycations(^2), followed by RAMPO. Binding of Aβ was visualized using 500× diluted anti-Aβ antibodies (mouse antibody beta-amyloid Clone 6F/3D #M0872, lot 00003503, DAKOCytomation; β-amyloid (H-43) SC-9129, 200 μg/ml rabbit polyclonal IgG, Santa Cruz Biotechnology) and RAMPO/SWARPO in a 1:1 ratio. Finally, wells were overlayed with OPD/H2O2 solution, and H2SO4, before absorbance readings at 490 nm.

[2] = information found on the www, search completed Spring 2006; cited from earlier work
[3] = molecular target: T2, ovalbumin (Gallus gallus, UniProt P01012); assay: Transmission electron microscopy of ovalbumin heated in the presence of small compounds; design: species or system chicken; conditions: 1 mg/ml ovalbumin heated with 1 mg/ml compound
T2 construct: purchased Sigma A5503
T2 sequence (P01012 1-386): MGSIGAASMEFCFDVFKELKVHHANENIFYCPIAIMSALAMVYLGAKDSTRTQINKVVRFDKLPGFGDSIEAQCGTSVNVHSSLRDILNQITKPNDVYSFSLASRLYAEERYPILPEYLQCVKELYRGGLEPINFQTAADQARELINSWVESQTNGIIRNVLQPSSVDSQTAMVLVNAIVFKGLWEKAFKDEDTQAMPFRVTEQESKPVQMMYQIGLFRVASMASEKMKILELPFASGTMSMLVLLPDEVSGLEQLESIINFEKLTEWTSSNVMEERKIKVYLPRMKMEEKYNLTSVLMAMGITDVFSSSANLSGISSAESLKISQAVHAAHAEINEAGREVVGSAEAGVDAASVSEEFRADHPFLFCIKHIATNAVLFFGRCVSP
Summary of the method: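 Ovalbumin at 1 mg/ml was applied to carbon-coated Formvar copper grids, washed with PBS and water, then stained 2 min in 2% methylcellulose with 0.4% uranyl acetate, pH 4. Grids were dried and imaged by TEM at 80 kV.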

[4] = tested on: misfolded proteins (Hb-AGE, Aβ); assay: Binding of misfolded proteins from solution to immobilized small compounds (overall); conditions: compounds coated on ELISA plates, Hb-AGE or Aβ in solution
Protocol: To test the ability of the twelve selected compounds (see Table 7) to bind to misfolded proteins, the compounds were immobilized at 10/100/1000 μg/ml in the wells of 96-wells Greiner Microlon high binding plates, Nunc amino Immobilizer plates and Nunc Maxisorp plates. Compounds were coated in 100 mM NaHCO3 pH 9.6, 50 μl/well, 1 h at room temperature with agitation. As a control, wells were coated with buffer only. After blocking of the plates, wells were overlayed with solutions of 0.1/1/10 μg/ml Hb-AGE or 10/100 μg/ml Aβ, in binding buffer (PBS/0.1% Tween20). After washing, binding of Hb-AGE was assessed by overlaying wells with 1 μg/ml hybridoma antibody 4B5, which binds to glycations(^2), followed by RAMPO. Binding of Aβ was visualized using 500× diluted anti-Aβ antibodies (mouse antibody beta-amyloid Clone 6F/3D #M0872, lot 00003503, DAKOCytomation; β-amyloid (H-43) SC-9129, 200 μg/ml rabbit polyclonal IgG, Santa Cruz Biotechnology) and RAMPO/SWARPO in a 1:1 ratio. Finally, wells were overlayed with OPD/H2O2 solution, and H2SO4, before absorbance readings at 490 nm.

[5] = molecular target: T3, heat-denatured misfolded ovalbumin (DOVA) (Gallus gallus, UniProt P01012); assay: ELISA binding of tPA to immobilized misfolded ovalbumin after pre-incubation with compounds; design: species or system chicken; conditions: misfolded OVA first overlayed with compound (concentration series), then tPA
T3 construct: purchased Sigma A5503
T3 sequence (P01012 2-386 limits assumed): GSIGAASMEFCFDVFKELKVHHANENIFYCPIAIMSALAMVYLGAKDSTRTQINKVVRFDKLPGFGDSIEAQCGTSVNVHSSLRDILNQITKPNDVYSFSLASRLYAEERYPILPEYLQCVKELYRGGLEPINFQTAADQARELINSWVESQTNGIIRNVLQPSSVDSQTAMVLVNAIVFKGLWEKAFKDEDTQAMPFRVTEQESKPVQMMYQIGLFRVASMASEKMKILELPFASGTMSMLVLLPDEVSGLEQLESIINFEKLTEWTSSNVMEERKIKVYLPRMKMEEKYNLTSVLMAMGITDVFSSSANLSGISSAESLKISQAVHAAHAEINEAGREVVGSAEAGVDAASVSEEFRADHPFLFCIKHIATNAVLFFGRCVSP
Protocol: Compounds were now diluted 10× in PBS/0.1% Tween20 (500 μg/ml compound). […] With this approach a further selection of the compounds was achieved. Now, compounds that at least interact with HB-AGE are selected. With the selection, similar binding assays are performed with misfolded OVA and Aβ. Finally, concentration series of the selected compounds are used in the binding studies.

[6] = molecular target: T4, heat-denatured ovalbumin (Gallus gallus, UniProt P01012); assay: Thioflavin T fluorescence of ovalbumin and small compounds; design: species or system chicken; conditions: 1 mg/ml compound, 1 mg/ml OVA
T4 construct: purchased Sigma A5503
T4 sequence (P01012 1-386): T2 sequence (P01012 1-386)
Summary of the method: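 Heat-denatured ovalbumin at 1 mg/ml in PBS, alone, with 1% v/v DMSO or with 1 mg/ml compound (also heat-denatured after compound addition), mixed 1:9 with 25 μM ThT in 50 mM glycine pH 9.0. Fluorescence read in duplicate at 435 nm excitation, 485 nm emission.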

[7] = molecular target: T5, tPA/plasminogen (Homo sapiens, UniProt P00750); assay: tPA/plasminogen activation by OVA heated in the presence of compounds (substrate PNAPEP1751); assay type: biochemical; conditions: 25 μg/ml OVA, 25 μg/ml compound, […] DMSO
T5 construct: purchased Boehringer Ingelheim Actilyse
T5 sequence (P00750 36-562): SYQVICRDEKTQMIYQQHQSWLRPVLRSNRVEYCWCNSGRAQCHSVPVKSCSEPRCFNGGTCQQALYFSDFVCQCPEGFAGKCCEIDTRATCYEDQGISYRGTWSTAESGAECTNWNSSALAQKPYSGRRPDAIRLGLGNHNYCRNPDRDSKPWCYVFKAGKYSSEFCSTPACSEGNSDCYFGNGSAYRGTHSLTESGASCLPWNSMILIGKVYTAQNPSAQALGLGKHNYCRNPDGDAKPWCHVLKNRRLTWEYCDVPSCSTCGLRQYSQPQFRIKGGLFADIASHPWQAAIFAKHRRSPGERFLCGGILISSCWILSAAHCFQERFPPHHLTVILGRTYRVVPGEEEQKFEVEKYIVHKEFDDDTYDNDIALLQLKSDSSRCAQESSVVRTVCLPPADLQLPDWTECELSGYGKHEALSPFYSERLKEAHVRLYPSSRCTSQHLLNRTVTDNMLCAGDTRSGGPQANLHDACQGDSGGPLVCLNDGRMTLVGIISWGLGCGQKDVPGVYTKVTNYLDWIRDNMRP
Summary of the method: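 Ovalbumin heated alone in PBS/1% DMSO (positive control) or with compounds at 1 mg/ml, then used 40-fold diluted in a tPA/plasminogen activation assay; buffer without OVA as negative control. Chromogenic substrate conversion read at 405 nm, with compound interference at 405 nm checked; signals related to control.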

[8] = molecular target: tPA (Homo sapiens, UniProt P00750); assay: Plasminogen activation assay (tPA-mediated conversion of Plg to plasmin); assay type: biochemical; design: purchased Boehringer-Ingelheim Actilyse; conditions: 100 μg ml^−1 protein or peptide, 400 pM tPA, substrate S-2251
Sequence of tPA (P00750 36-562): as above
Protocol: Plasmin (Plm) activity was assayed as described^4. Peptides and proteins that were tested for their stimulatory ability were used at 100 μg ml^−1, unless stated otherwise. […] Chromogenic substrate S-2251 (Chromogenix, Instrumentation Laboratory SpA, Milano, Italy) was used to measure Pls activity.
Purification of β2-glycoprotein I (β2GPI) was performed according to established methods^15,16. Recombinant human β2GPI was made using insect cells and purified as described^15. Plasma derived β2GPI as used in a factor XII ELISA, the Plg-activation assay and in the anti-phospholipid syndrome antibody ELISA (see below), was purified from fresh human plasma as described^16. […]
Solutions of fibrin peptide FP6, NH2—IDIKIR-COOH (Peptide facility, Dutch Cancer Institute, Amsterdam, the Netherlands) were prepared in various ways. […] Separate samples were prepared similarly and analyzed by electron spray ionization mass spectrometry (ESI-MS) to obtain information on the distribution of the peptide over putatively present oligomers (Dr C. Versluis, Department of Biomolecular Mass Spectrometry, Bijvoet Center for Biomolecular Research, Utrecht University, Utrecht, The Netherlands). […] Micrographs were recorded at 80 kV, at suitable magnifications on a JEM-1200EX electron microscope (JEOL, Japan).

Molecule | Signal (a.u.) [1] [a.u.] | Use or activity in vitro/in vivo [2] | appearance of ovalbumin heated in the presence of compound on TEM image [3] | capture of misfolded protein from solution by immobilized compound [4] | influence on tPA binding to immobilized misfolded OVA [5] | influence on Thioflavin T fluorescence with misfolded OVA [6] | influence on tPA/plasminogen activation by OVA pre-heated in the presence of compound [7] | stimulation of tPA-mediated conversion of Plg to plasmin [8]
COc1cc2c(C=O)c3c4c(cc(OC)c(OC)c4c2cc1OC)CCN3C [compound 214, dehydroglaucine derivative] | 0.14 | inhibitory effect on lipopolysaccharide (LPS)-induced; also recorded: protection of plants from invasion by micro-organisms; also recorded: antimicrobial activity; also recorded: decrease in the blood pressure after applying intravenously; also recorded: bronchoconstrictor effect; also recorded: inhibitory action on the central nervous system | Smaller but more dense aggregates than in Control | Capture of misfolded protein from solution | Stimulated tPA binding to immobilized misfolded protein | Inhibition of Thioflavin T fluorescence with misfolded OVA | Inhibition of tPA/plasminogen activation by OVA pre-heated | –
H-IDIKIR-OH [FP6, reference compound] | – | – | – | – | – | – | – | activates tPA in the chromogenic plasmin activity assay
